Data taken from paper PMC6743422, “Preclinical disposition of MGS0274 besylate, a prodrug of a potent group II metabotropic glutamate receptor agonist MGS0008 for the treatment of schizophrenia” (Pharmacology Research & Perspectives, 2019).
“Also recorded” adds a separate entry of the source. Where two headings read alike, the source gives them in different places. Marks after values point to notes of the source that are not given here.

Tests used:
[1] = system: monkey cryopreserved hepatocytes; assay: In vitro metabolite profiling in monkey cryopreserved hepatocytes; type: in vitro ADME; details: monkey hepatocytes
Method: (§1) Rat, monkey, or human cryopreserved hepatocytes in Leivovitz L‐15 medium at 0.5 million cells/mL were incubated at 37°C for 1 hour with [^14C]MGS0274 besylate at 10 μmol/L. The reaction was terminated by adding 10% w/v trichloroacetic acid solution, and the resultant mixture was centrifuged. Aliquots of the supernatant were subjected to bioanalysis using high‐performance liquid chromatography equipped with radiochemical flow detection (RI‐HPLC) (see Table S1‐B). Aliquots of the supernatant from unlabeled incubation samples and authentic standards were also injected into a liquid chromatography‐mass spectrometry (LC‐MS) system under the same chromatographic conditions to compare their chromatographic retention times and mass spectral data (see Table S1‐B).

[2] = system: cultured human hepatocytes; assay: Toxicity to the cultured human hepatocytes; type: cell-based; details: at the concentrations tested (3-30 μM)
CYP3A4 mRNA = type: in vitro ADME, human; details: three consecutive 24-hour treatments
Method: (§2) The primary cultured cryopreserved human hepatocytes were plated in a collagen‐coated 96‐well plate (Becton Dickinson, Franklin Lakes, NJ) with Williams’ Medium E (Invitrogen, Carlsbad, CA) containing Geltrex^TM (Invitrogen) and Maintenance Supplements (Invitrogen) and maintained in humidified air‐5% CO2 at 37°C for 3 days. Then, the cells were cultured for three consecutive 24‐hour treatments with MGS0008 (3‐30 µmol/L), with MGS0274 besylate (3‐30 µmol/L), or with positive controls (omeprazole for CYP1A2 at 50 µmol/L, phenobarbital for CYP2B6 at 1000 µmol/L, or rifampicin for CYP3A4 at 10 µmol/L). The mRNA expression levels of CYP1A2, 2B6, and 3A4 were measured using the real‐time polymerase chain reaction (RT‐PCR) method (7500 Fast RT‐PCR system; Applied Biosystems, Foster City, CA) with TaqMan® Fast Universal PCR Master Mix (probe ID: Hs00167927_m1 for CYP1A2, Hs04183483_g1 for CYP2B6, and Hs00604506_ml for CYP3A4; Applied Biosystems). The fold change in the mRNA expression was calculated using the 2^‐ΔΔCT method.22

[3] = system: CYP1A2, 2B6, 2C8, 2C9, 2C19, 2D6 and 3A; assay: CYP inhibition in human liver microsomes, all 7 isoforms together; type: in vitro ADME; details: human, at 100 μM, all the CYP isoforms tested, read-out: percent inhibition
[4] = system: human cytochrome P450 (CYP) isoforms (CYP1A2, 2B6, 2C8, 2C9, 2C19, 2D6, and 3A); assay: as above; type: in vitro ADME; details: MGS0008 0.3-100 µmol/L, MGS0274 besylate 0.03-10 µmol/L
CYP2D6 = molecular target: T1, CYP2D6 (Homo sapiens, UniProt P10635); assay: CYP inhibition in human liver microsomes, CYP2D6; type: in vitro ADME; details: human liver microsomes 0.1 mg/mL; probe (±)-Bufuralol, metabolite 1'-Hydroxybufuralol
T1 construct: using probe substrates for each CYP isoform and human liver microsomes; from tissue; host or cells: human liver microsomes

[5] = system: phencyclidine-induced locomotor hyperactivity; details: rat, oral 3 mg/kg; cited from earlier work
CYP2C9 = molecular target: T2, CYP2C9 (Homo sapiens, UniProt P11712); assay: CYP inhibition in human liver microsomes, CYP2C9; type: in vitro ADME; details: human liver microsomes 0.1 mg/mL; probe Diclofenac, metabolite 4'-Hydroxydiclofenac
T2 construct: using probe substrates for each CYP isoform and human liver microsomes; from tissue; host or cells: human liver microsomes

CYP2B6 = molecular target: T3, CYP2B6 (Homo sapiens, UniProt P20813); assay: CYP inhibition in human liver microsomes, CYP2B6; type: in vitro ADME; details: human liver microsomes 0.1 mg/mL; probe Bupropion, metabolite Hydroxybupropion
T3 construct: using probe substrates for each CYP isoform and human liver microsomes; from tissue; host or cells: human liver microsomes

CYP1A2 mRNA = assay: CYP induction in primary cultured cryopreserved human hepatocytes, CYP1A2 mRNA; type: in vitro ADME; details: three consecutive 24-hour treatments
Method: as §2

CYP1A2 = molecular target: T4, CYP1A2 (Homo sapiens, UniProt P05177); assay: CYP inhibition in human liver microsomes, CYP1A2; type: in vitro ADME; details: human liver microsomes 0.1 mg/mL; probe Phenacetin, metabolite Acetaminophen
T4 construct: using probe substrates for each CYP isoform and human liver microsomes; from tissue; host or cells: human liver microsomes
Method: The inhibition potential of MGS0008 (0.3‐100 µmol/L) and MGS0274 besylate (0.03‐10 µmol/L) on the activity of human cytochrome P450 (CYP) isoforms (CYP1A2, 2B6, 2C8, 2C9, 2C19, 2D6, and 3A) was investigated using probe substrates for each CYP isoform and human liver microsomes, of which the final protein concentration was set at 0.1 mg/mL (see Table S2). The assay was started by spiking the reaction mixture, which had been pre‐incubated at 37°C for 5 minutes, with NADP^+. After incubation for 5 to 10 minutes, the reaction was terminated by adding acetonitrile containing an internal standard for each probe substrate, and the resultant mixture was centrifuged. Aliquots of the supernatant were subjected to bioanalysis using LC‐MS/MS (see Table S1‐D).
The final protein concentration in the reaction mixture was set at 0.1 mg/mL. The values in parentheses represent the final concentrations of compounds added in each reaction mixture. […]

[6] = system: rat cryopreserved hepatocytes; assay: In vitro metabolite profiling in rat cryopreserved hepatocytes; type: in vitro ADME; details: rat hepatocytes
Method: as §1

CYP2C8 = molecular target: T5, CYP2C8 (Homo sapiens, UniProt P10632); assay: CYP inhibition in human liver microsomes, CYP2C8; type: in vitro ADME; details: human liver microsomes 0.1 mg/mL; probe Amodiaquine, metabolite N-desethylamodiaquine
T5 construct: using probe substrates for each CYP isoform and human liver microsomes; from tissue; host or cells: human liver microsomes

CYP2B6 mRNA = assay: CYP induction in primary cultured cryopreserved human hepatocytes, CYP2B6 mRNA; details: three consecutive 24-hour treatments
Method: as §2

[7] = system: mRNA expression of CYP1A2, 2B6, and 3A4; assay: CYP induction in human hepatocytes, CYP1A2, 2B6 and 3A4 together; type: in vitro ADME; details: 3-30 µmol/L; three lots of human hepatocytes
Method: as §2

[8] = system: human cryopreserved hepatocytes; assay: In vitro metabolite profiling in human cryopreserved hepatocytes; type: in vitro ADME; details: human hepatocytes
Method: as §1

CYP2C19 = molecular target: T6, CYP2C19 (Homo sapiens, UniProt P33261); assay: CYP inhibition in human liver microsomes, CYP2C19; type: in vitro ADME; details: human liver microsomes 0.1 mg/mL; probe (S)-Mephenytoin, metabolite 4'-Hydroxymephenytoin
T6 construct: using probe substrates for each CYP isoform and human liver microsomes; from tissue; host or cells: human liver microsomes
T6 sequence (P33261 whole entry, canonical isoform): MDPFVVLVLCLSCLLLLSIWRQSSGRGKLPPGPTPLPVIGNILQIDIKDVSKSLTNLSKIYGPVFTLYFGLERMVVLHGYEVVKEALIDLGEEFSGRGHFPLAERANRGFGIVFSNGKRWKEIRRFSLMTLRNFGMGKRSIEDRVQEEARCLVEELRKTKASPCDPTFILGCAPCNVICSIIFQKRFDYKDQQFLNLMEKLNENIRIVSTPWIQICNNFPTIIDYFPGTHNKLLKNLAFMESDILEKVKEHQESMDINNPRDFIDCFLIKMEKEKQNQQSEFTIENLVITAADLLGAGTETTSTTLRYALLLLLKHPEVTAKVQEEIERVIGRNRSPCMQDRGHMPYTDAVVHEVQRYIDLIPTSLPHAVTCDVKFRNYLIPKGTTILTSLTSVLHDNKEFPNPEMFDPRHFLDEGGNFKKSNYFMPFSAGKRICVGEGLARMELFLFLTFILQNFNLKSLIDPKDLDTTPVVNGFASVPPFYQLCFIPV

T4 sequence (P05177 whole entry, canonical isoform): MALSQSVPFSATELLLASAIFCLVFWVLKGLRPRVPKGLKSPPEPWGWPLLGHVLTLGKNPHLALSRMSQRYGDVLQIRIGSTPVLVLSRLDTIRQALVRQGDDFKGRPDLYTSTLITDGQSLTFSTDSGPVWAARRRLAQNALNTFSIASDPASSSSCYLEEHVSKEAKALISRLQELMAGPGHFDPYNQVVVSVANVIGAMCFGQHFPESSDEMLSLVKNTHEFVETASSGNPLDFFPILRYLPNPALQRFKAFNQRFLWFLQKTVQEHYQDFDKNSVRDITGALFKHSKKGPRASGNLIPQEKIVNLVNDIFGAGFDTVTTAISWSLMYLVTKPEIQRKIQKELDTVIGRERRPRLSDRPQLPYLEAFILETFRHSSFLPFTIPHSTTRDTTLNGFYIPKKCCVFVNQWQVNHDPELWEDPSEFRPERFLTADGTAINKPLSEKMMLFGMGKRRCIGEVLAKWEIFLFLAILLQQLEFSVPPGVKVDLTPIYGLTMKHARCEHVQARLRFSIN
T2 sequence (P11712 whole entry, canonical isoform): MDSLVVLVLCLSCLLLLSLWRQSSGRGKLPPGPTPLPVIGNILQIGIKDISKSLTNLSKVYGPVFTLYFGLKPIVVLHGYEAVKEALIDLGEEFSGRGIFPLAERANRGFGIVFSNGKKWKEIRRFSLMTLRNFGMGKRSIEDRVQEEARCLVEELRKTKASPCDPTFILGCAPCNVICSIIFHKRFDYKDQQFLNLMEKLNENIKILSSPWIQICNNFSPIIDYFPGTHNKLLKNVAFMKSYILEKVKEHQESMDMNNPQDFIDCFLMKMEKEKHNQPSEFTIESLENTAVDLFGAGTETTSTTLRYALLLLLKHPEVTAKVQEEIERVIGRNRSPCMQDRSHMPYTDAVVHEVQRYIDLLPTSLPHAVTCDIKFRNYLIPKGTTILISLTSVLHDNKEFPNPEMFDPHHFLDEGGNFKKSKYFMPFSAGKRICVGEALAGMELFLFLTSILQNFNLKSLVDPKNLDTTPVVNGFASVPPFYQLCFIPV
T3 sequence (P20813 whole entry, canonical isoform): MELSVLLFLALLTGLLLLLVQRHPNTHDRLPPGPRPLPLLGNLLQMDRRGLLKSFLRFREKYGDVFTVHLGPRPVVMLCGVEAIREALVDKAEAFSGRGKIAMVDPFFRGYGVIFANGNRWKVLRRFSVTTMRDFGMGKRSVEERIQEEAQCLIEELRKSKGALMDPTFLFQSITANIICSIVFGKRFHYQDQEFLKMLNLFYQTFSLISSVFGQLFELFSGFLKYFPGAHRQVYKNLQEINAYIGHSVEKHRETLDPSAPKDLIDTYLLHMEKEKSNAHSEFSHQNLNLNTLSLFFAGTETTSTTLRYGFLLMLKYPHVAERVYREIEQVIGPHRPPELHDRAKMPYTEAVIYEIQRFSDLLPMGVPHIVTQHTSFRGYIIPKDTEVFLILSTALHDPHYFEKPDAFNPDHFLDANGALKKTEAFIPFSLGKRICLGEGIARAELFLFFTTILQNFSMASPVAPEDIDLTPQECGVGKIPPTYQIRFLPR
T5 sequence (P10632 whole entry, canonical isoform): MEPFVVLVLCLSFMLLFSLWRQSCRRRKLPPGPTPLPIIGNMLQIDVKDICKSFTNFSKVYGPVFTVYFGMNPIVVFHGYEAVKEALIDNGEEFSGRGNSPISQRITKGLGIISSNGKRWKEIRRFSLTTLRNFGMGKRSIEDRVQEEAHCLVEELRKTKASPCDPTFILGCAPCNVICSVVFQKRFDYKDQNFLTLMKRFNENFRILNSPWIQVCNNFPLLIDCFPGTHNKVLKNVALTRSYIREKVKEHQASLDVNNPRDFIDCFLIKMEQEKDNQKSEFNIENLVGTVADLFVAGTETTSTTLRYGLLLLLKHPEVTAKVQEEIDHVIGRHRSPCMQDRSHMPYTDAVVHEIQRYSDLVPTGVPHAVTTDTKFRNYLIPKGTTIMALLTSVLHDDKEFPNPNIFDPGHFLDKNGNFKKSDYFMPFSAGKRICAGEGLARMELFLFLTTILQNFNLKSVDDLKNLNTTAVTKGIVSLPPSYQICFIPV
T1 sequence (P10635 whole entry, canonical isoform): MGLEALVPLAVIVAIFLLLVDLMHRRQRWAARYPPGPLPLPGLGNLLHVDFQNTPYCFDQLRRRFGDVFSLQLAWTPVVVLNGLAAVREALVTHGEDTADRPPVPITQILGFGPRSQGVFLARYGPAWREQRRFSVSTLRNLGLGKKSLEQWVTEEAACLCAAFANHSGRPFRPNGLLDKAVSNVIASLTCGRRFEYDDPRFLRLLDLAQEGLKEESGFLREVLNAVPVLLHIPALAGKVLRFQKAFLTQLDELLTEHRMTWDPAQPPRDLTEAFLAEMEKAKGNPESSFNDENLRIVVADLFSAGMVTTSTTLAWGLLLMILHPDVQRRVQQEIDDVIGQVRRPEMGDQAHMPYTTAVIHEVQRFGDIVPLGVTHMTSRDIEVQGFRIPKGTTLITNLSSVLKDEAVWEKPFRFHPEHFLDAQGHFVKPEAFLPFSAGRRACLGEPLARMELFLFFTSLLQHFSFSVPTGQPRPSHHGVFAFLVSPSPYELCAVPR

Question: What does the source list for `N[C@]1(C(=O)O)[C@H]2[C@@H](C[C@@H]1F)[C@@H]2C(=O)O` [MGS0008, (1S,2S,3S,5R,6S)‐2‐amino‐3‐fluorobicyclo[3.1.0]hexane‐2,6‐dicarboxylic acid]?
Answer: further metabolism of MGS0008 in hepatocytes [1]: no metabolites; toxicity to the cultured human hepatocytes [2]: did not show detectable toxicity; Fold change of mRNA expression level CYP3A4 (CYP3A4 mRNA; hepatocyte lot Hu1487, 3 μM): 1.3 fold; Fold change of mRNA expression level CYP3A4 (CYP3A4 mRNA; hepatocyte lot Hu1487, 10 μM): 1.3 fold; Fold change of mRNA expression level CYP3A4 (CYP3A4 mRNA; hepatocyte lot Hu1487, 30 μM): 1.7 fold; Fold change of mRNA expression level CYP3A4 (CYP3A4 mRNA; hepatocyte lot Hu8114, 3 μM): 1.4 fold; Fold change of mRNA expression level CYP3A4 (CYP3A4 mRNA; hepatocyte lot Hu8114, 10 μM): 1.4 fold; Fold change of mRNA expression level CYP3A4 (CYP3A4 mRNA; hepatocyte lot Hu8114, 30 μM): 1.9 fold; Fold change of mRNA expression level CYP3A4 (CYP3A4 mRNA; hepatocyte lot Hu8123, 3 μM): 1.0 fold; Fold change of mRNA expression level CYP3A4 (CYP3A4 mRNA; hepatocyte lot Hu8123, 10 μM): 0.7 fold; Fold change of mRNA expression level CYP3A4 (CYP3A4 mRNA; hepatocyte lot Hu8123, 30 μM): 0.9 fold; inhibition at 100 µM [3]: < 50%; inhibitory potential on the CYP isoforms [4]: no inhibitory potential; IC50 (CYP2D6): > 100 µM; phencyclidine-induced locomotor hyperactivity [5]: inhibited; also recorded: significantly decreased; IC50 (CYP2C9): > 100 µM; IC50 (CYP2B6): > 100 µM; Fold change of mRNA expression level CYP1A2 (CYP1A2 mRNA; hepatocyte lot Hu1487, 3 μM): 0.8 fold; Fold change of mRNA expression level CYP1A2 (CYP1A2 mRNA; hepatocyte lot Hu1487, 10 μM): 0.7 fold; Fold change of mRNA expression level CYP1A2 (CYP1A2 mRNA; hepatocyte lot Hu1487, 30 μM): 1.0 fold; Fold change of mRNA expression level CYP1A2 (CYP1A2 mRNA; hepatocyte lot Hu8114, 3 μM): 1.1 fold; Fold change of mRNA expression level CYP1A2 (CYP1A2 mRNA; hepatocyte lot Hu8114, 10 μM): 1.0 fold; Fold change of mRNA expression level CYP1A2 (CYP1A2 mRNA; hepatocyte lot Hu8114, 30 μM): 1.1 fold; Fold change of mRNA expression level CYP1A2 (CYP1A2 mRNA; hepatocyte lot Hu8123, 3 μM): 0.9 fold; Fold change of mRNA expression level CYP1A2 (CYP1A2 mRNA; hepatocyte lot Hu8123, 10 μM): 1.1^b fold; Fold change of mRNA expression level CYP1A2 (CYP1A2 mRNA; hepatocyte lot Hu8123, 30 μM): 0.9 fold; IC50 (CYP1A2): > 100 µM; further metabolism of MGS0008 in hepatocytes [6]: no metabolites; IC50 (CYP2C8): > 100 µM; Fold change of mRNA expression level CYP2B6 (CYP2B6 mRNA; hepatocyte lot Hu1487, 3 μM): 0.9 fold; Fold change of mRNA expression level CYP2B6 (CYP2B6 mRNA; hepatocyte lot Hu1487, 10 μM): 0.7 fold; Fold change of mRNA expression level CYP2B6 (CYP2B6 mRNA; hepatocyte lot Hu1487, 30 μM): 0.9 fold; Fold change of mRNA expression level CYP2B6 (CYP2B6 mRNA; hepatocyte lot Hu8114, 3 μM): 0.8 fold; Fold change of mRNA expression level CYP2B6 (CYP2B6 mRNA; hepatocyte lot Hu8114, 10 μM): 0.8 fold; Fold change of mRNA expression level CYP2B6 (CYP2B6 mRNA; hepatocyte lot Hu8114, 30 μM): 1.0 fold; Fold change of mRNA expression level CYP2B6 (CYP2B6 mRNA; hepatocyte lot Hu8123, 3 μM): 1.2 fold; Fold change of mRNA expression level CYP2B6 (CYP2B6 mRNA; hepatocyte lot Hu8123, 10 μM): 1.2^b fold; Fold change of mRNA expression level CYP2B6 (CYP2B6 mRNA; hepatocyte lot Hu8123, 30 μM): 1.3 fold; induction potential on the CYP mRNA tested [7]: no apparent induction potential; further metabolism of MGS0008 in hepatocytes [8]: not metabolized; IC50 (CYP2C19): > 100 µM
